The text below walks through data of patent publication US11839214B2, “Fungicidal mixture comprising substituted pyridines” (BASF SE, priority 2017, dated 2023).

Type in all cases: cell-based
Assay [1] concerns Botrytis cinerea. Nature of the assay: Activity against the grey mold Botrytis cinerea in the microtiterplate test. Particulars: single active compound.
Assay [2] deals with Pyricularia oryzae. Nature of the assay: microbe, parasite or virus in culture. The note with it: for Observed efficacy: single active compound, 1 ppm.
The subject of assay [3] is Septoria tritici. Put plainly: Activity against leaf blotch on wheat caused by Septoria tritici (microtiterplate test).
The subject of assay [4] is Sclerotinia sclerotiorum. Nature of the assay: Activity against Sclerotinia sclerotiorum in the microtiterplate test.
The mark [5] stands for this setting: Botrytis cinerea, 168 h, read-out: Observed efficacy.
Where [6] appears, read: Pyricularia oryzae, 168 h, read-out: Observed efficacy.
Setting [7] is: Zymoseptoria tritici, 168 h, single active, 1 ppm, read-out: Observed efficacy.
[8] abbreviates: Sclerotinia sclerotiorum, 168 h, single active compound, 4 ppm, read-out: Observed efficacy.
[9] abbreviates: Sclerotinia sclerotiorum, 168 h, single active compound, read-out: Observed efficacy.
[10] abbreviates: Botrytis cinerea, 168 h, 1 ppm, read-out: Observed efficacy.
Setting [11] is: Zymoseptoria tritici, 168 h, single active, 0.063 ppm, read-out: Observed efficacy.
[12] abbreviates: Zymoseptoria tritici, 168 h, single active, 0.25 ppm, read-out: Observed efficacy.
The mark [13] stands for this setting: Zymoseptoria tritici, 168 h, single active, read-out: Observed efficacy.
Where [14] appears, read: Botrytis cinerea, 168 h, 0.25 ppm, read-out: Observed efficacy.

Like-named read-outs stand apart in the source and are kept apart here.

For the molecule `CC(C)O/N=C(/CNC(=O)c1cn(C)nc1C(F)F)c1ncc(C#CC2CC2)cc1Cl` [Pyrapropyon, pyrapropoyne], the inhibition of growth at 4 ppm in assay [1] (setting [5]) stood at 35%; in assay [2] (setting [6]), 1%; in assay [4] (setting [8]) it was 55%. The figures for the inhibition of growth at 16 ppm in assay [1] (setting [5]) and in assay [2] (setting [6]) were 71% and 4%, respectively. For the same molecule, the inhibition of growth at 1 ppm in assay [3] (setting [7]) worked out at 42%.
Consider `O=[N+]([O-])c1cc(C(F)(F)F)c(Cl)c([N+](=O)[O-])c1Nc1ncc(C(F)(F)F)cc1Cl` [Fluazinam, fluazinam], for which the inhibition of growth at 0.063 ppm in assay [2] (setting [6]) worked out at 6%. Moreover, the inhibition of growth at 0.25 ppm in assay [4] (setting [9]) came to 58%.
For `Cc1ncc(C2=NC(C)(C)C(F)(F)c3ccccc32)cc1CF` [Compound 1-3], the inhibition of growth at 1 ppm was 6% in assay [1] (setting [10]), 26% in assay [2] (setting [6]), 9% in assay [3] (setting [7]) and 3% in assay [4] (setting [9]). For the same molecule, the inhibition of growth at 4 ppm in assay [1] (setting [5]) was 9%; in assay [2] (setting [6]), 52%; in assay [3] (setting [13]), 13%; in assay [4] (setting [8]) it was 8%. Also, the inhibition of growth at 16 ppm came to 19% in assay [1] (setting [5]) and 34% in assay [3] (setting [13]). Further, the inhibition of growth at 0.025 ppm in assay [2] (setting [6]) worked out at 20%. The inhibition of growth at 0.063 ppm in assay [3] (setting [11]) is 11%. Also, in assay [3] (setting [12]), the inhibition of growth at 0.25 ppm is 13%.
`Cc1cc(C2=NC(C)(C)C(F)(F)c3ccccc32)cnc1C` [Compound 1-1]: the results for the inhibition of growth at 0.25 ppm in assay [1] (setting [14]), in assay [2] (setting [6]) and in assay [4] (setting [9]) were 13%, 23% and 7%, respectively. Further, the inhibition of growth at 1 ppm in assay [1] (setting [10]) was determined as 13%; in assay [2] (setting [6]), 24%; in assay [3] (setting [7]), 9%; in assay [4] (setting [9]), 7%. Also, the inhibition of growth at 4 ppm in assay [1] (setting [5]) is 16%; in assay [2] (setting [6]), 53%; in assay [3] (setting [13]) it was 18%; in assay [4] (setting [8]) it was 10%. Also, the inhibition of growth at 16 ppm in assay [1] (setting [5]) was 19%; in assay [3] (setting [13]), 37%; in assay [4] (Sclerotinia sclerotiorum, 168 h, single active compound, 16 ppm, read-out: Observed efficacy) it was 32%.
Take `N#Cc1sc2c(=O)c3ccccc3c(=O)c=2sc1C#N` [Dithianon, dithianon]: the inhibition of growth at 0.25 ppm in assay [1] (setting [14]) worked out at 4%; in assay [2] (setting [6]), 36%; in assay [3] (setting [12]), 82%. Besides, the inhibition of growth at 0.063 ppm is 14% in assay [2] (setting [6]) and 22% in assay [3] (setting [11]). For the same molecule, the inhibition of growth at 1 ppm in assay [4] (setting [9]) turned out to be 36%.
As to `Cc1cc(C2=NC(C)(C)C(F)(F)c3ccccc32)cnc1C(F)F` [Compound 1-2], the inhibition of growth at 1 ppm in assay [1] (setting [10]) came out at 15%; in assay [2] (setting [6]), 32%; in assay [3] (setting [7]) it was 6%. Also, the inhibition of growth at 4 ppm was found to be 19% in assay [1] (setting [5]), 29% in assay [3] (setting [13]) and 16% in assay [4] (setting [8]). In assay [1] (setting [5]), the inhibition of growth at 16 ppm stood at 31%. The inhibition of growth at 0.063 ppm in assay [2] (setting [6]) worked out at 14%. Besides, the figures for the inhibition of growth at 0.25 ppm in assay [2] (setting [6]) and in assay [3] (setting [12]) were 20% and 12%, respectively.
As for `N#Cc1c[nH]cc1-c1cccc2c1OC(F)(F)O2` [Fludioxonil, fludioxonil], in assay [2] (setting [6]), the inhibition of growth at 0.004 ppm is 16%, the inhibition of growth at 0.016 ppm worked out at 35% and the inhibition of growth at 0.063 ppm stood at 40%. Besides, the inhibition of growth at 0.25 ppm in assay [3] (Zymoseptoria tritici, 168 h, read-out: Observed efficacy) was 10%. Also, the inhibition of growth at 0.016 ppm in assay [4] (Sclerotinia sclerotiorum, 168 h, read-out: Observed efficacy) came to 13%.
For `Cc1cc(C)nc(Nc2ccccc2)n1` [Pyrimethanil, pyrimethanil], the inhibition of growth at 1 ppm came to 50% in assay [1] (setting [10]), 6% in assay [3] (setting [7]) and 15% in assay [4] (setting [9]). The inhibition of growth at 4 ppm stood at 72% in assay [1] (setting [5]) and 21% in assay [4] (setting [8]). Further, in assay [3] (setting [13]), the inhibition of growth at 16 ppm came to 21%.
Take `COc1cc(C2=NC(C)(C)C(F)(F)c3ccccc32)cnc1C(F)F` [Compound 1-4]: the inhibition of growth at 1 ppm was 12% in assay [1] (setting [10]), 29% in assay [2] (setting [6]) and 8% in assay [3] (setting [7]). In addition, the results for the inhibition of growth at 4 ppm in assay [1] (setting [5]), in assay [2] (setting [6]) and in assay [3] (setting [13]) were 21%, 42% and 1%, respectively. Also, the inhibition of growth at 16 ppm in assay [1] (setting [5]) amounted to 41%; in assay [3] (setting [13]) it was 17%. Also, the inhibition of growth at 0.063 ppm in assay [2] (setting [6]) was 18%. The inhibition of growth at 0.25 ppm in assay [2] (setting [6]) is 23%; in assay [3] (setting [12]) it was 7%.
Regarding `CC1(C)N=C(c2cnc3ccccc3c2)c2ccccc2C1(F)F` [Quinofumelin, quinofumelin], the Observed efficacy in assay [1] (1 ppm) is 30%; in assay [2] it was 34%; in assay [3] (single active, 1 ppm) it was 41%; in assay [4] (single active compound, 4 ppm), 65%.
Consider `CC(C)c1ccc(Cl)cc1CN(C(=O)c1c(C(F)F)nn(C)c1F)C1CC1` [Isoflucypram, isoflucypram], for which the Observed efficacy in assay [1] (0.25 ppm) was determined as 59%; in assay [2], 14%; in assay [3] (single active, 0.063 ppm), 72%.
Regarding `CON=C(C(=O)OC)c1ccccc1CON=C(C)c1cccc(C(F)(F)F)c1` [Trifloxystrobin, trifloxystrobin], the inhibition of growth at 0.063 ppm in assay [1] (Botrytis cinerea, 168 h, 0.063 ppm, read-out: Observed efficacy) was determined as 4%. Also, the inhibition of growth at 0.004 ppm in assay [2] (setting [6]) was found to be 8%. The inhibition of growth at 0.016 ppm was determined as 23% in assay [2] (setting [6]) and 27% in assay [3] (Zymoseptoria tritici, 168 h, single active, 0.016 ppm, read-out: Observed efficacy).
